# Assay results taken from article PMC8175851, “Effects of Genetic Polymorphism in CYP2D6, CYP2C19, and the Organic Cation Transporter OCT1 on Amitriptyline Pharmacokinetics in Healthy Volunteers and Depressive Disorder Patients” (Frontiers in Pharmacology, 2021).
# Like-named read-outs stand apart in the source and are kept apart here.
# Experiments:
# [1] = Pharmacokinetics of AT and NT in healthy volunteers after a single dose of 25 mg amitriptyline; type: in vivo, human; settings: healthy volunteers; for Tmax / half-life / AUC(0-inf) / Cmax / AUC(0-t): human, plasma, po, 25 mg; for Tmax / half-life / AUC(0-inf) / Cmax / Vz / CL / AUC(0-t): single oral 25 mg AT; for AUC(0-inf): read-out: AUCinf; for AUC(0-t): read-out: AUC48h
# Excerpt: In order to enrich the study sample with the less frequent functionally deficient OCT1 variants, participants were selected based on OCT1 genotype from an internal database at the Institute of Clinical Pharmacology of the University Medical Center Göttingen. All volunteers who are listed in the internal database had agreed to it and the database was approved by the ethics committee of the University of Göttingen. […] Additional subjects with heterozygous genotypes were included to provide a better understanding of the effects of specific variants and the mode of inheritance. All volunteers gave their written informed consent before participation in the study. The study was approved by the ethics committee of the University of Göttingen and the German Federal Institute for Drugs and Medical Devices (BfArM). It was registered at the clinical trials databases Clinicaltrials.gov (NCT02054299) and EudraCT (number 2012-003546-33). […] Volunteers who underwent regular drug treatments other than oral contraceptives or who suffered from any relevant chronic illness, as well as pregnant or lactating women, were not included. All subjects were healthy according to a detailed medical history, medical examination, electrocardiogram, urine status and clinical chemistry, and haematology parameters (sodium, potassium, total bilirubin, aspartate aminotransferase, alanine-aminotransferase, creatinine, C-reactive protein, thyroid-stimulating hormone, haemoglobin, erythrocyte, thrombocyte, and leucocyte counts). […] After centrifugation (13,000 rpm, 15 min, room temperature), two-thirds of the supernatant were transferred to a new reaction tube and evaporated at 40°C under nitrogen flow. The residue was reconstituted under shaking in 0.1% methanoic acid and briefly centrifuged before quantification using a Nexera UHPLC system (Shimadzu, Kyoto, Japan) coupled to an API 4000 tandem mass spectrometer (AB Sciex, Darmstadt, Germany). […] PerkinElmer, Rodgau, Germany) with a Phenomenex C18 pre-column (4 × 2 mm, Phenomenex, Aschaffenburg, Germany). […] The lower limit of quantification was 0.5 ng/ml for AT and 0.1 ng/ml for NT. […] The mass spectrometry detection parameters are listed in Supplementary Table S1. For the study in healthy volunteers, the primary endpoints were the AUCs of plasma AT and NT concentrations. Secondary endpoints were the other pharmacokinetic parameters of AT and NT, as well as heart rate, blood pressure, pupil size effects, and possible adverse events (headache, fatigue, visual or hearing impairments, restlessness, nausea, dizziness, dry mouth, tremor, as well as sensations of hypothermia and heart palpitations determined using a visual analogue scale test). Pharmacokinetic parameters were calculated by non-compartmental analysis using Phoenix 64 WinNonlin version 6.3 (Certara Inc., Princeton, NJ, United States). AUCinf of AT was calculated from the time of dosing using the linear/log trapezoidal rule and extrapolated to infinity based on the last predicted concentration and using the terminal elimination rate constant (lambda z). AUC of NT was calculated from the time of dosing until the last measurement at 48 h using the linear/log trapezoidal rule, as a decline in NT concentrations was not observed in some subjects and extrapolation to infinity thus not possible.
# [2] = Plasma concentrations per dose unit of AT and NT in depressive disorder patients (75 mg AT twice daily); type: in vivo, human; settings: 12-hour-trough levels
# Description: Briefly, 75 mg AT was administered twice daily at 12 h dosing intervals. Any drugs or dietary ingredients that might interfere with CYP2D6 or CYP2C19 metabolism were avoided whenever possible. Blood samples (12-hour-trough levels) were taken on days 0, 7, 14, 18, and 21, centrifuged, and stored at 4°C for genotyping (CYP2D6 and CYP2C19) and concentration analyses. The blood samples were subsequently stored at −20°C and later genotyped for OCT1.
# The serum concentrations in depressive disorder patients were determined either by the Emit® immunoassay specific for AT and NT or a commercial high-performance liquid chromatography assay (Bio-Rad Laboratories GmbH, Feldkirchen, Germany), as described before ([Steimer et al., 2004]; [Steimer et al., 2005]).
# The correlation between AT and NT plasma AUC (study in healthy volunteers) or mean plasma concentration per dose unit (study in depressive disorder patients) and OCT1, CYP2D6, and CYP2C19 genotypes were calculated using the Jonckheere-Terpstra non-parametric analysis, which takes into consideration the a priori ordering (or trend) in gene activities from zero to normal to ultra-rapid (for CYP2C19 and CYP2D6). To do so, the genotypes were categorized into 0, 1, or 2 active alleles for OCT1, into 0, 0.5, 1, 1.5, 2, 2.5, or 3 active alleles for CYP2D6, and into 0, 1, 1.5, 2, 2.5, or 3 active alleles for CYP2C19, depending on their known effects on transporter/enzyme activity. OCT1 alleles *2, *3, *4, *5 were classified as being zero active. […] A semi-quantitative gene dosage was calculated for CYP2D6, as has been described earlier ([Steimer et al., 2004]). For calculating a CYP2C19 activity score, CYP2C19*2 was regarded as zero active, CYP2C19*1 was classified as 1, and CYP2C19*17 as 1.5. Additional multiple linear regression analyses included sex, age, body mass index, and glomerular filtration rate.
# [3] = both sexes, CYP2D6 activity 2 (n = 11), mean
# [4] = both sexes, CYP2D6 activity 2.5 (n = 1), mean
# [5] = both sexes, CYP2D6 activity 3 (n = 2), mean
# [6] = CYP2C19 activity score 0 (n = 1), mean
# [7] = CYP2C19 activity score 3 (n = 1), mean
compound,measurement,setting,value
"CN(C)CCC=C1c2ccccc2CCc2ccccc21 [Amitriptyline, amitriptyline]",Tmax,[1]; [3],3.4 h
same,half-life,[1]; [3],19.5 h
same,Tmax,[1]; [4],6 h
same,half-life,[1]; [4],14 h
same,Tmax,[1]; [5],2 h
same,half-life,[1]; [5],20.6 h
same,AUC(0-inf),"[1]; both sexes, OCT1 genotype *1 / *1 (n 14), mean ± standard deviation",243 ± 88 ng·h/mL
same,AUC(0-inf),"[1]; both sexes, OCT1 genotype *1 / *2 (n 3), mean ± standard deviation",273 ± 59 ng·h/mL
same,AUC(0-inf),"[1]; both sexes, OCT1 genotype *1 / *3 (n 4), mean ± standard deviation",216 ± 87 ng·h/mL
same,AUC(0-inf),"[1]; both sexes, OCT1 genotype *1 / *4 (n 2), mean ± standard deviation",187 ± 49 ng·h/mL
same,AUC(0-inf),"[1]; both sexes, OCT1 genotype *2 / *2 (n 3), mean ± standard deviation",202 ± 92 ng·h/mL
same,AUC(0-inf),"[1]; both sexes, OCT1 genotype *2 / *3 (n 4), mean ± standard deviation",189 ± 53 ng·h/mL
same,AUC(0-inf),"[1]; both sexes, OCT1 genotype *2 / *5 (n 1)",298 ng·h/mL
same,AUC(0-inf),"[1]; both sexes, OCT1 genotype *3 / *3 (n 3), mean ± standard deviation",172 ± 28 ng·h/mL
same,AUC(0-inf),"[1]; both sexes, OCT1 genotype *3 / *4 (n 1)",215 ng·h/mL
same,Cmax,"[1]; both sexes, read-out: average Cmax",39 nM
same,Cmax,"[1]; both sexes, read-out: average Cmax (average peak plasma concentration)",10.7 ng/mL
same,peak concentration of unbound AT,"[1]; 25 mg AT, from peak plasma concentration with 95% plasma protein binding",0.54 µg/L
same,Vz,[1]; 0 active OCT1 alleles (n = 12),"3,828 ± 800 L"
same,Vz,[1]; 1 active OCT1 allele (n = 9),"3,610 ± 1,633 L"
same,Vz,[1]; 2 active OCT1 alleles (n = 14),"3,401 ± 1,041 L"
same,CL,"[1]; CL/F = dose/AUCinf, 0 active OCT1 alleles (n = 12)",2.3 ± 0.6 L/min
same,CL,"[1]; CL/F = dose/AUCinf, 1 active OCT1 allele (n = 9)",2.0 ± 0.8 L/min
same,CL,"[1]; CL/F = dose/AUCinf, 2 active OCT1 alleles (n = 14)",1.9 ± 0.6 L/min
same,CL,"[1]; CL/F, CYP2C19 activity score 0 (n = 1), mean",1.30 L/min
same,CL,"[1]; CL/F, CYP2C19 activity score 1 (n = 5), mean",1.94 L/min
same,CL,"[1]; CL/F, CYP2C19 activity score 1.5 (n = 2), mean",1.5 L/min
same,CL,"[1]; CL/F, CYP2C19 activity score 2 (n = 16), mean",2.1 L/min
same,CL,"[1]; CL/F, CYP2C19 activity score 2.5 (n = 10), mean",2.2 L/min
same,CL,"[1]; CL/F, CYP2C19 activity score 3 (n = 1), mean",1.54 L/min
same,CL,"[1]; CL/F, CYP2D6 activity 0 (n = 3), mean",1.45 L/min
same,CL,"[1]; CL/F, CYP2D6 activity 0.5 (n = 2), mean",2.09 L/min
same,CL,"[1]; CL/F, CYP2D6 activity 1 (n = 10), mean",1.81 L/min
same,CL,"[1]; CL/F, CYP2D6 activity 1.5 (n = 6), mean",2.03 L/min
same,CL,"[1]; CL/F, CYP2D6 activity 2 (n = 11), mean",2.25 L/min
same,CL,"[1]; CL/F, CYP2D6 activity 2.5 (n = 1), mean",2.64 L/min
same,CL,"[1]; CL/F, CYP2D6 activity 3 (n = 2), mean",2.92 L/min
same,Vz,[1]; [6],"3,004 L"
same,Vz,"[1]; CYP2C19 activity score 1 (n = 5), mean","3,525 L"
same,Vz,"[1]; CYP2C19 activity score 1.5 (n = 2), mean","2,559 L"
same,Vz,"[1]; CYP2C19 activity score 2 (n = 16), mean","3,696 L"
same,Vz,"[1]; CYP2C19 activity score 2.5 (n = 10), mean","3,740 L"
same,Vz,[1]; [7],"3,762 L"
same,Vz,"[1]; CYP2D6 activity 0 (n = 3), mean","2,982 L"
same,Vz,"[1]; CYP2D6 activity 0.5 (n = 2), mean","4,189 L"
same,Vz,"[1]; CYP2D6 activity 1 (n = 10), mean","3,269 L"
same,Vz,"[1]; CYP2D6 activity 1.5 (n = 6), mean","3,446 L"
same,Vz,"[1]; CYP2D6 activity 2 (n = 11), mean","3,768 L"
same,Vz,"[1]; CYP2D6 activity 2.5 (n = 1), mean","3,192 L"
same,Vz,"[1]; CYP2D6 activity 3 (n = 2), mean","5,361 L"
same,AUC(0-t),[1]; [6],229 ng·h/mL
same,AUC(0-inf),[1]; [6],321 ng·h/mL
same,Cmax,"[1]; CYP2C19 activity score 0 (n = 1), mean, read-out: Cmax",11.5 ng/mL
same,AUC(0-t),[1]; [7],198 ng·h/mL
same,AUC(0-inf),[1]; [7],271 ng·h/mL
same,Cmax,"[1]; CYP2C19 activity score 3 (n = 1), mean, read-out: Cmax",13.9 ng/mL
same,Tmax,[1]; [6],4 h
same,half-life,[1]; [6],26.7 h
same,Tmax,[1]; [7],2 h
same,half-life,[1]; [7],28.3 h
same,Mean plasma concentration per dose unit,"[2]; OCT1 genotype *1 / *1 (n 27), mean ± standard deviation",37.3 ± 15.9
same,Mean plasma concentration per dose unit,"[2]; OCT1 genotype *1 / *2 (n 14), mean ± standard deviation",44.0 ± 15.2
same,Mean plasma concentration per dose unit,"[2]; OCT1 genotype *1 / *3 (n 2), mean ± standard deviation",56.9 ± 36.0
same,Mean plasma concentration per dose unit,[2]; OCT1 genotype *1 / *4 (n 1),38.7
same,Mean plasma concentration per dose unit,"[2]; OCT1 genotype *2 / *2 (n 3), mean ± standard deviation",47.6 ± 15.4
same,Mean plasma concentration per dose unit,"[2]; OCT1 genotype *2 / *3 (n 2), mean ± standard deviation",52.6 ± 31.9
same,Mean plasma concentration per dose unit,[2]; OCT1 genotype *3 / *3 (n 1),53.9
